The text below walks through data of ChEMBL document CHEMBL2074142, “Interaction of anionic cephalosporins with the intestinal and renal peptide transporters PEPT 1 and PEPT 2” (Biochim Biophys Acta, 1997).

What all share (format): functional, cell-based
Data set [1] has as its target T1, Solute carrier family 15 member 1 (Homo sapiens) (UniProt P46059).
T1 sequence (whole entry): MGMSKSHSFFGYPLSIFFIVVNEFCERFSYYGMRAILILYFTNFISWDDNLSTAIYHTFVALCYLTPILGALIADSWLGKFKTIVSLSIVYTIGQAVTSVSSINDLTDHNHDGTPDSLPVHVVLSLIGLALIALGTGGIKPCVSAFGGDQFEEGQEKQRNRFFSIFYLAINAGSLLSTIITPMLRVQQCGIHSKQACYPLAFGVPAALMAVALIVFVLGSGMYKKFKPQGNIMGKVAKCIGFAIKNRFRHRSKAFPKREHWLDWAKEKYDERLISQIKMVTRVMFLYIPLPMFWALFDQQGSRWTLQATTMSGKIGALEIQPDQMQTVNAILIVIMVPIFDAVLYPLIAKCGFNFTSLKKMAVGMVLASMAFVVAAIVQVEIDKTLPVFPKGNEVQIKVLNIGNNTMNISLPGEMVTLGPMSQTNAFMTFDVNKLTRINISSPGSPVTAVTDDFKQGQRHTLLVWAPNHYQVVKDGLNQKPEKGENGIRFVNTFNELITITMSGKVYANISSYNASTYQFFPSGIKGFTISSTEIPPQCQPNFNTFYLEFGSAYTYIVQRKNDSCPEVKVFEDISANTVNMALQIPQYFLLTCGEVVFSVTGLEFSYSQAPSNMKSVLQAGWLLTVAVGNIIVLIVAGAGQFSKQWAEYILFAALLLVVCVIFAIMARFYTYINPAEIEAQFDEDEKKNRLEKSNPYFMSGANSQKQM
Briefly: TP_TRANSPORTER: inhibition of Gly-Sar uptake (Gly-Sar: 20 uM, Cefdinir: 10000 uM) in PEPT1-expressing HeLa cells.

For data set [2], the target named is T2, Solute carrier family 15 member 2 (Rattus norvegicus, UniProt Q63424).
T2 sequence (Q63424 whole entry): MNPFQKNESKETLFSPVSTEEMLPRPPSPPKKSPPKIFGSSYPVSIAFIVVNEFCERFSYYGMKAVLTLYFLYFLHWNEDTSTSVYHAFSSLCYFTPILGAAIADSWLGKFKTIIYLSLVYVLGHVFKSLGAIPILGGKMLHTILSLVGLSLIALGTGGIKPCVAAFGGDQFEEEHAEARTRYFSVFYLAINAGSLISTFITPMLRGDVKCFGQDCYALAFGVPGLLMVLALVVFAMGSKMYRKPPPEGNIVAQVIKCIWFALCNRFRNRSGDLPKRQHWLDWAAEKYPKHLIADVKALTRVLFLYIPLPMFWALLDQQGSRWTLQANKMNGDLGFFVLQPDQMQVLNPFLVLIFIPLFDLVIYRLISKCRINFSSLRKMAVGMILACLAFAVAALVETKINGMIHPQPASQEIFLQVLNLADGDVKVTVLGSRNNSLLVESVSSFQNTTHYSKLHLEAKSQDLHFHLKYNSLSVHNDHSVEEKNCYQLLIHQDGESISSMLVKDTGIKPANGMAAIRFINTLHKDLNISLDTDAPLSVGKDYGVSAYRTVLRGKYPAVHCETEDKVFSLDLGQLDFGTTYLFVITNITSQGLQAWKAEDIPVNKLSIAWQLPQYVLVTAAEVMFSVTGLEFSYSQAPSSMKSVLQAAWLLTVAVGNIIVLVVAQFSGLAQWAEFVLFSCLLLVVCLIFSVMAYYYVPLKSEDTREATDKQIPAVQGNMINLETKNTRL
Briefly: TP_TRANSPORTER: inhibition of Gly-Sar uptake (Gly-Sar: 5 uM) in SKPT cells.

In data set [3] the target is T3, Solute carrier family 15 member 2 (Homo sapiens) (UniProt Q16348).
T3 sequence (whole entry): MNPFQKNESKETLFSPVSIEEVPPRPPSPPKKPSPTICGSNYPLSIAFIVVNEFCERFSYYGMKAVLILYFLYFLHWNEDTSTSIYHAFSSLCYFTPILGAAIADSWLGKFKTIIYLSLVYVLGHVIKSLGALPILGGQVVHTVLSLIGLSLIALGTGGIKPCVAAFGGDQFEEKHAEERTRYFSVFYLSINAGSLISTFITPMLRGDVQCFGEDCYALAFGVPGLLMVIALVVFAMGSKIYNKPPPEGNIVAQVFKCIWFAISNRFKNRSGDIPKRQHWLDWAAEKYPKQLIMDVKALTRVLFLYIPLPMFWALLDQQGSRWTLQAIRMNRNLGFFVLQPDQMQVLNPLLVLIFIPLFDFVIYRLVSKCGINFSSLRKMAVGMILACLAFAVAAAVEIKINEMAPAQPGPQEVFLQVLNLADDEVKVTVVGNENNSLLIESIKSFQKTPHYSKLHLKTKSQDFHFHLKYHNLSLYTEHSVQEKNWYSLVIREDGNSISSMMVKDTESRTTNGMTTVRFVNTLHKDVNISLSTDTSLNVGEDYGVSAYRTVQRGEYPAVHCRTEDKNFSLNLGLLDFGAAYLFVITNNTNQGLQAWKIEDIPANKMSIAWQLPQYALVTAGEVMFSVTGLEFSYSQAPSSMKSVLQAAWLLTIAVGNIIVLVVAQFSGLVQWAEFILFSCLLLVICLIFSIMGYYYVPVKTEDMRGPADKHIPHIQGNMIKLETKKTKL
Briefly: TP_TRANSPORTER: inhibition of Gly-Sar uptake (Gly-Sar: 50 uM, Cefdinir: 10000 uM) in PEPT2-expressing HeLa cells.

Data set [4] has as its target T4, Solute carrier family 15 member 1 (Homo sapiens, UniProt P46059).
T4 sequence (P46059 whole entry): T1 sequence (whole entry)
Kind of data set: TP_TRANSPORTER: inhibition of Gly-Sar uptake (Gly-Sar: 5 uM) in Caco-2 cells.

For data set [5], the target named is T1, Solute carrier family 15 member 1 (Homo sapiens). Briefly: TP_TRANSPORTER: inhibition of Gly-Sar uptake (Gly-Sar: 20 uM, Cefixime: 10000 uM) in PEPT1-expressing HeLa cells.
The target in data set [6] is T3, Solute carrier family 15 member 2 (Homo sapiens). Kind of data set: TP_TRANSPORTER: inhibition of Gly-Sar uptake (Gly-Sar: 50 uM, Cefixime: 10000 uM) in PEPT2-expressing HeLa cells.
Data set [7] deals with T4, Solute carrier family 15 member 1. Briefly: TP_TRANSPORTER: inhibition of Gly-Sar uptake in PEPT1-expressing HeLa cells.
The target is the same in data set [8]. Briefly: TP_TRANSPORTER: inhibition of Gly-Sar uptake in Caco-2 cells.
Data set [9] concerns the target T2, Solute carrier family 15 member 2. Briefly: TP_TRANSPORTER: inhibition of Gly-Sar uptake in SKPT cells.
The target of data set [10] is T5, Solute carrier family 15 member 2 (Homo sapiens, UniProt Q16348).
T5 sequence (Q16348 whole entry): T3 sequence (whole entry)
Briefly: TP_TRANSPORTER: inhibition of Gly-Sar uptake in PEPT2-expressing HeLa cells.

Substrate in data set [11]: CN(CC(=O)O)C(=O)CN
Briefly: TP_TRANSPORTER: uptake in SKPT cells.

On to `C=CC1=C(C(=O)O)N2C(=O)[C@@H](NC(=O)/C(=N\O)c3csc(N)n3)[C@H]2SC1` [CEFDINIR], for which the inhibition in data set [1] was 31%. The molecule further gave an IC50 in data set [2] of 10000 µM. The Activity in data set [3] was 0.48.

As to `C=CC1=C(C(=O)O)N2C(=O)[C@@H](NC(=O)/C(=N\OCC(=O)O)c3csc(N)n3)[C@H]2SC1` [CEFIXIME], the IC50 in data set [4] is 10000 µM; in [2] it was 3200 µM. Moreover, the inhibition in data set [5] is 44%. Moreover, the Activity in data set [6] was 0.54.

As for `Nc1nc(/C(=C/CC(=O)O)C(=O)N[C@@H]2C(=O)N3C(C(=O)O)=CCS[C@H]23)cs1` [CEFTIBUTEN], the Ki in data set [7] was found to be 710 µM; in data set [8], 870 µM; in [9], 380 µM; in [10] it was 90 µM.

B1: Solute carrier family 15 member 2 (Rattus norvegicus), Q63424 (protein)
chain: T2 sequence (Q63424 whole entry)
Turning to B1, the Km in [11] amounted to 74.5 µM.
